Structures are written as SMILES.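 1) Cells in 96-well plates. 2) Compound, 48 h, 5 concentrations. 3) Linear interpolation between surrounding doses. 4) Unreached endpoint = highest concentration. At the TGI there is no net growth.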

Test systems include OVCAR-5 ovarian; DU-145 prostate; HOP-92 NSCLC; MCF7 breast; TK-10 renal; EKVX NSCLC; U251 CNS.
Experiment in all cases: growth of human tumour cells (NCI), 48 h

Turning to `CC1(C)CN=CC(C)(OCc2ccccc2)C(=O)NC(C)(C)CN=CC(C)(OCc2ccccc2)C(=O)N1` (centres undefined), the TGI in the test on OVCAR-5 ovarian is above 10 µM; in the test on DU-145 prostate, above 10 µM; with HOP-92 NSCLC it was 0.808 µM; with MCF7 breast, above 10 µM; in the test on TK-10 renal, above 10 µM; with EKVX NSCLC, above 10 µM. This molecule returned a TGI in the test on U251 CNS above 10 µM.

Turning to `O=c1c2cc(I)ccc2nc(SCc2nnco2)n1Cc1ccccc1`, the TGI with OVCAR-5 ovarian, in the test on DU-145 prostate, in the test on HOP-92 NSCLC, in the test on MCF7 breast, in the test on TK-10 renal and in the test on EKVX NSCLC was above 100 µM each time. The same molecule showed a TGI with U251 CNS above 100 µM.

Turning to `CC1=CC(=O)/C(=C/n2c(=S)[nH]c3cc(C)ccc32)C(=O)O1`, the TGI with OVCAR-5 ovarian, with DU-145 prostate, in the test with HOP-92 NSCLC, in the test on MCF7 breast, in the test with TK-10 renal and in the test with EKVX NSCLC was above 100 µM each time. The TGI with U251 CNS was above 100 µM.

For the molecule `CCOC(=O)C(NC(=O)CC)(Nc1ccc(S(=O)(=O)Nc2ccc(OC)nn2)cc1)C(F)(F)F` (centres undefined), the TGI in the test on OVCAR-5 ovarian, in the test on DU-145 prostate, with HOP-92 NSCLC, with MCF7 breast, with TK-10 renal and in the test on EKVX NSCLC was above 100 µM throughout. This molecule displayed a TGI in the test on U251 CNS above 100 µM.

As to `O=C1CCC2(c3ccc(Cl)cc3)Nc3ncncc3N12` (centres undefined), the TGI in the test on OVCAR-5 ovarian, in the test with DU-145 prostate, with HOP-92 NSCLC, in the test with MCF7 breast, with TK-10 renal and in the test on EKVX NSCLC was above 10 µM each time. The TGI in the test with U251 CNS is above 10 µM.

As for `OC1(c2ccc(Cl)cc2)c2c(c3ccccc3c3ccccc23)C2=NCCN21` (centres undefined), the TGI with OVCAR-5 ovarian was 46 µM; in the test with DU-145 prostate, 45.6 µM; with HOP-92 NSCLC it was 49.4 µM; in the test on MCF7 breast it was 41.7 µM; in the test with TK-10 renal it was 16.8 µM; in the test on EKVX NSCLC it was 35.4 µM. Besides, the TGI in the test on U251 CNS is 30.8 µM.

In the case of `COc1cc2[nH]c(=O)c3cc(C)cc4c(Cl)nc(c1OC)c2c43`, the TGI with OVCAR-5 ovarian, in the test with DU-145 prostate, with HOP-92 NSCLC, in the test with MCF7 breast, in the test with TK-10 renal and in the test with EKVX NSCLC was above 100 µM each time. The same molecule displayed a TGI in the test on U251 CNS above 100 µM.

With `Cn1c(COC(=O)NC2CCCCC2)c(COC(=O)NC2CCCCC2)c2ccc3cc(C=O)ccc3c21`, the TGI with OVCAR-5 ovarian, in the test on DU-145 prostate, in the test with HOP-92 NSCLC, in the test with MCF7 breast, in the test on TK-10 renal and in the test on EKVX NSCLC was above 100 µM throughout. The TGI in the test on U251 CNS was 87.5 µM.

Turning to `CO[C@]12CC(=O)C3(C(C[C@H]4CC5CC[C@H]6C[C@@H](OC(C)=O)CC[C@]6(OC(C)=O)C5C[C@@]43C)C1)C1C[C@H]3[C@@H]4CC[C@H]5C[C@@H](OC(C)=O)CC[C@]5(OC(C)=O)[C@H]4CC[C@]3(C)C12` (some centres undefined), the TGI in the test with OVCAR-5 ovarian, in the test with DU-145 prostate, with HOP-92 NSCLC, with MCF7 breast, with TK-10 renal and in the test with EKVX NSCLC was above 100 µM in each case. Further, in the test on U251 CNS, the TGI is above 100 µM.

For `COc1cc(C2c3cc(OC)c(OC)c(O)c3C(=O)C3CCC(=O)N32)cc(OC)c1OC` (centres undefined), the TGI in the test on OVCAR-5 ovarian, with DU-145 prostate, in the test on HOP-92 NSCLC, with MCF7 breast, in the test with TK-10 renal and in the test with EKVX NSCLC was above 100 µM each time. For the same molecule, the TGI in the test on U251 CNS is above 100 µM.

As to `O=C(N[C@H]1CCC[C@H]1C(=O)Nc1ccc(C(F)(F)F)cc1)OCc1ccccc1`, the TGI with OVCAR-5 ovarian, with DU-145 prostate, in the test with HOP-92 NSCLC, in the test on MCF7 breast, in the test on TK-10 renal and in the test with EKVX NSCLC was above 100 µM throughout. In the test on U251 CNS, the TGI is above 100 µM.

For `COc1ccc(N2N=NN(C(C)C)/C2=C(/Cl)c2nnnn2-c2ccc(OC)cc2)cc1`, the TGI amounted to 26.9 µM in the test with OVCAR-5 ovarian; 22.7 µM in the test on DU-145 prostate; 6.19 µM with HOP-92 NSCLC; 22.6 µM with MCF7 breast; 30.1 µM with TK-10 renal; 36.1 µM in the test on EKVX NSCLC. The molecule also displayed a TGI in the test with U251 CNS of 33.7 µM.

Take `COc1ccc(N2C(=O)C3c4[nH]c5ccccc5c4C4c5ccccc5CC4C3C2=O)cc1` (centres undefined): the TGI in the test on OVCAR-5 ovarian, in the test with DU-145 prostate, in the test with HOP-92 NSCLC, with MCF7 breast, in the test with TK-10 renal and with EKVX NSCLC was above 100 µM in each case. In the test with U251 CNS, this molecule gave a TGI above 100 µM.

Consider `CCn1c(=O)c2c3ccc(OC)cc3[nH]c2c2ccc(OC)cc21`, for which the TGI in the test with OVCAR-5 ovarian, with DU-145 prostate, in the test on HOP-92 NSCLC, with MCF7 breast, with TK-10 renal and in the test with EKVX NSCLC was above 100 µM throughout. For the same molecule, the TGI in the test on U251 CNS was above 100 µM.

As for `COc1cc(/C=C/C(=N\NC(=S)NN)c2sc(NNC(C)=O)nc2C)ccc1O`, the TGI with OVCAR-5 ovarian, in the test with DU-145 prostate, with HOP-92 NSCLC, in the test with MCF7 breast, with TK-10 renal and with EKVX NSCLC was above 100 µM each time. The molecule also showed a TGI in the test with U251 CNS above 100 µM.

Consider `CC(C)=CCC[C@@H](C)C1=CC(=O)C(C)=C(O)C1=O`, for which the TGI with OVCAR-5 ovarian stood at 27.5 µM; with DU-145 prostate, 15.7 µM; with HOP-92 NSCLC, 7.18 µM; with MCF7 breast it was 16 µM; in the test on TK-10 renal, 15.7 µM; with EKVX NSCLC, 13.9 µM. In the test on U251 CNS, this molecule yielded a TGI of 38.7 µM.

As to `COc1ccc(Cn2c3ccc([N+](=O)[O-])cc3c(=O)n2Cc2ccccn2)cc1`, the TGI with OVCAR-5 ovarian, in the test with DU-145 prostate, in the test with HOP-92 NSCLC, in the test with MCF7 breast, in the test on TK-10 renal and with EKVX NSCLC was above 100 µM throughout. This molecule showed a TGI in the test with U251 CNS above 100 µM.

These data come from PubChem BioAssay (NCI).
